In data set [1] the test system is CYP1A2. The data set can be described thus: CYP selective diagnostic inhibition studies in HLM, furafylline. The format is in vitro ADME, human. Conditions: furafylline 10 µmol/L. The protocol:
(§1) Reactions were carried out in triplicate in 96 well plates. Each reaction was measured at 2 time points, that is at 0 and 30 minutes. […] Furafylline, KTZ, ticlopidine, and quinidine were used as diagnostic inhibitors for CYP 1A2, 3A4/5, 2C19 and 2D6, respectively. The reactions were initiated by addition of NADPH after a pre‐incubation of 5 minutes at 37°C. All reactions were terminated by the addition of 150 µL ice‐cold ACN. Internal standard (0.2 µmol/L DPZ) was added to ACN prior to termination of the assay. This was followed by centrifugation at 4500 g for 20 minutes. An aliquot (50 µL) supernatant was collected and 5 µL was injected and analyzed by liquid chromatography/tandem mass spectrometry (LC/MS/MS). The percent effect of each inhibitor was the estimated contribution of the inhibited CYP calculated using the relationship below: %contribution=amount remaining with inhibitor‐amount remaining without inhibitor/amount remaining without inhibitor×100.

Data set [2] relates to CYP2D6. In words: CYP selective diagnostic inhibition studies in HLM, quinidine. Conditions: quinidine 10 µmol/L. Type of data set: in vitro ADME, human. The protocol:
as §1

The subject of data set [3] is CYP2C19. In words: CYP selective diagnostic inhibition studies in HLM, ticlopidine. Type of data set: in vitro ADME, human. The settings on record: ticlopidine 10 µmol/L. On the procedure:
as §1

Data set [4] has as its system CYP3A4/5. The data set can be described thus: CYP selective diagnostic inhibition studies in HLM, ketoconazole. The format is in vitro ADME, human. Conditions: ketoconazole 10 µmol/L. On the procedure:
as §1

In data set [5] the test system is HLM. The data set can be described thus: Intrinsic clearance, substrate depletion approach. The format is in vitro ADME, human. Conditions: HLM, substrate depletion, well‐stirred model. The protocol: The generic conditions were previously described by Masimirembwa and co‐workers. ^24 , ^25 Each reaction mixture consisted of substrate incubated with appropriate enzyme, substrate, and NADPH in potassium phosphate buffer pH 7.4 in a final volume of 200 µL. The substrate was diluted to 40% ACN so that the percent organic component in the final solution was maintained at 1%. The reactions were quenched with 3 volumes of stop solution containing ACN and 0.8% formic acid at 0, 5, 10, 20, 30, 40, and 60 minutes. This was followed by centrifugation at 4500 g for 20 minutes. An aliquot (50 µL) supernatant was collected and diluted (1:1) in water prior to LC‐MS/MS analysis.
Each reaction was monitored over 7 time points.
(§2) The well‐stirred model was used to estimate the hepatic clearance (CLH) due to metabolism.

The test system of data set [6] is HLM. In words: Enzyme kinetics of hydroxylated metabolites formation. The format is in vitro ADME, human. On the procedure: The reactions were carried out in duplicate at each time point. Incubation conditions used for the determination of K M and V max were optimized for linearity with respect to time and protein concentrations. […] Metabolites were analyzed by LC‐MS/MS as described below. The K M and V max values of each marker substrate were determined using nonlinear least squares regression analysis in GraFit software (version 3.0, Erithacus Software Limited) and SigmaPlot Enzyme Kinetics Module for Windows 7.0 (SPSS, Inc). […]

Data set [7] is described as follows: Simcyp prediction of total hepatic clearance. Also on record: species or system human. On the procedure: The clearance of the incubation mixture was expressed as μL/min/pmol for rCYP.
as §2

The conditions of data set [8]: cited from earlier work.
The conditions of data set [9]: cited from earlier work. This is another data set of the same source.
Data set [10] has as its target T1, CYP1A2 (Homo sapiens, UniProt P05177).
T1 sequence (P05177 1-516): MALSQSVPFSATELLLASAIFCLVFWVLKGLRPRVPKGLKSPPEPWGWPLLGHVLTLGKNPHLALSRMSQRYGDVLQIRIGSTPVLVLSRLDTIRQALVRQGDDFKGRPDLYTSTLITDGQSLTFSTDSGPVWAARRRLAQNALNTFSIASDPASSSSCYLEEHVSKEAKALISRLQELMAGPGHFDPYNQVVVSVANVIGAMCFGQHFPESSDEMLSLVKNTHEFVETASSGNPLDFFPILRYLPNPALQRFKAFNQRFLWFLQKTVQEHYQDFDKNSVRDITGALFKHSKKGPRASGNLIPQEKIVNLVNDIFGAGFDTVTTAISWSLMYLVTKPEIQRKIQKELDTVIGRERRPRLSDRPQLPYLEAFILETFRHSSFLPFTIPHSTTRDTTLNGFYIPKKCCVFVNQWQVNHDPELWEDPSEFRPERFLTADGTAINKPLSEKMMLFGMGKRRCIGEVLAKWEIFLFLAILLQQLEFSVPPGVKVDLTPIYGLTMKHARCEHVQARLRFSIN
In words: Enzyme kinetics of hydroxylated metabolites formation. Type of data set: in vitro ADME. More on the design: purchased CYPEX CYP001; host or cells: Escherichia coli. The settings on record: CYP1A2, formation of cis‐4‐OH‐PZQ. The protocol: (§3) The reactions were carried out in duplicate at each time point. Incubation conditions used for the determination of K M and V max were optimized for linearity with respect to time and protein concentrations. […] Metabolites were analyzed by LC‐MS/MS as described below. The K M and V max values of each marker substrate were determined using nonlinear least squares regression analysis in GraFit software (version 3.0, Erithacus Software Limited) and SigmaPlot Enzyme Kinetics Module for Windows 7.0 (SPSS, Inc).
as §2

Data set [11] concerns the target CYP2C19 (Homo sapiens, UniProt P33261). The description is as above. Type of data set: in vitro ADME. Also on record: purchased CYPEX CYP008; host or cells: Escherichia coli. The settings on record: CYP2C19, formation of cis‐4‐OH‐PZQ. On the procedure: as §3, §2
For data set [12] the following is noted: cited from earlier work; for Increase of exposure with KTZ: PZQ metabolism inhibited by KTZ.

Sequence of CYP2C19 (Homo sapiens, UniProt P33261) (P33261 whole entry): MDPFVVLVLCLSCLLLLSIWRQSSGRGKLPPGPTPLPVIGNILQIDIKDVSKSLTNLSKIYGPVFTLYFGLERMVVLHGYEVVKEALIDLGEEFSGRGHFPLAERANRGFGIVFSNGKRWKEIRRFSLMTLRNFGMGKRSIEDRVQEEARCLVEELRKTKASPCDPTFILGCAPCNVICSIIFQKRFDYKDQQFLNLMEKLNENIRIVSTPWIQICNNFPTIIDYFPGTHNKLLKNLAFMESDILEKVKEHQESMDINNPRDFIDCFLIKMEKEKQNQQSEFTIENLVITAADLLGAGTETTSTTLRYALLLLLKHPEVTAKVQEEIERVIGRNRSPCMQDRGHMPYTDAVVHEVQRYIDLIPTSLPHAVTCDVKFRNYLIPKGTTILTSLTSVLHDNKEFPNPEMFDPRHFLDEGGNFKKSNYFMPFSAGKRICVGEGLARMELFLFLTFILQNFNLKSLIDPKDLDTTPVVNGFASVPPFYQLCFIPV

For the molecule `O=C(C1CCCCC1)N1CC(=O)N2CCc3ccccc3C2C1` (stereo not drawn) [PZQ, praziquantel], in data set [1], the “Contribution of CYP1A2” value is −54%. The “Contribution of CYP2D6” value in [2] amounted to 35%. Moreover, in [3], the “Contribution of CYP2C19” value came to 127%. In addition, the “Contribution of CYP3A4/5” value in data set [4] is recorded as 97%. Besides, the “Predicted CLH” value in [5] was 0.702 L/h/kg. In addition, the “K M [SD]” value in [6] (formation of X‐OH‐PZQ) is 118.6 [35.79] µmol/L; in data set [6] (formation of cis‐4‐OH‐PZQ), 32.60 [3.982] µmol/L. For the same molecule, the “V max [SD]” value in data set [6] (formation of X‐OH‐PZQ) was 11.10 [2.074] nmol/min/mg protein; in data set [6] (formation of cis‐4‐OH‐PZQ), 0.5978 [0.028] nmol/min/mg protein. In addition, the “Predicted total CLH (Simcyp)” value in [7] (metabolite formation assay) is 0.6864 L/h/kg; in [7] (substrate depletion assay) it was 0.2194 L/h/kg. Besides, the “Oral dose eliminated renally (unchanged drug and metabolites)” value in [8] is recorded as “More than 80%”. For the same molecule, the Systemic bioavailability in [8] is listed as under 20%. In data set [8] (co‐administration with cimetidine), the Increase in bioavailability was 100%. Besides, in data set [8] (in man), the “Drug excreted within 24 hours” value is reported as “more than 80%”. Besides, the “Fraction unbound in plasma (fu)” value in data set [9] was 0.2. For the same molecule, the figures for the “CLuH,int” value in [10] and in data set [11] were 0.4122 L/h/kg and 0.276 L/h/kg, respectively.

Regarding `O=C1CN(C(=O)[C@H]2CC[C@@H](O)CC2)CC2c3ccccc3CCN12` (stereo partly drawn) [cis‐4‐OH PZQ, cis‐4‐hydroxy‐PZQ], in data set [12], the “Increase of exposure with KTZ” value is 57%.

As to `O=C(C1CCC(O)CC1)N1CC(=O)N2CCc3ccccc3C2C1` (stereo not drawn) [trans‐4‐OH PZQ, trans‐4‐hydroxy‐PZQ], the “Increase of exposure with KTZ” value in data set [12] is listed as 67%. Moreover, in data set [12] (ref NLeya et al (19)), the “Amount relative to cis 4‐OH PZQ in vivo” value is reported as 30 times.

The record behind these values is PMC7376644 (Pharmacology Research & Perspectives, 2020).
